Data taken from ChEMBL document CHEMBL3112424, “Discovery and optimization of pyrimidone indoline amide PI3Kβ inhibitors for the treatment of phosphatase and tensin homologue (PTEN)-deficient cancers” (J Med Chem, 2014).
Values after ≈ are worked out from the molar mass of the structure shown.

Key:
Liver microsome = assay: Metabolic stability in dog liver microsomes; type: ADME, Canis lupus familiaris
[1] = Half life in Beagle dog at 10 mg/kg, po; type: ADME, organism-based, Canis lupus familiaris; set-up: dose 10 mg/kg, route oral; conditions: in vivo
[2] = Oral bioavailability in Beagle dog at 10 mg/kg; type: ADME, organism-based, Canis lupus familiaris; conditions: in vivo
[3] = Tmax in Beagle dog at 10 mg/kg, po; type: ADME, organism-based, Canis lupus familiaris; set-up: dose 10 mg/kg, route oral; conditions: in vivo
[4] = Volume of distribution at steady state in Beagle dog at 3 mg/kg, iv; type: ADME, organism-based, Canis lupus familiaris; set-up: dose 3 mg/kg, route intravenous; conditions: in vivo, read-out: Vdss
[5] = Clearance in Beagle dog at 3 mg/kg, iv; type: ADME, organism-based, Canis lupus familiaris; set-up: dose 3 mg/kg, route intravenous; conditions: in vivo
[6] = Cmax in Beagle dog at 3 mg/kg, iv; type: ADME, organism-based, Canis lupus familiaris; set-up: dose 3 mg/kg, route intravenous; conditions: in vivo
[7] = Oral bioavailability in nude rat at 10 mg/kg; type: ADME, organism-based; conditions: in vivo
[8] = Tmax in nude rat at 10 mg/kg, po; type: ADME, organism-based; set-up: dose 10 mg/kg, route oral; conditions: in vivo
[9] = AUC (infinity) in nude rat at 10 mg/kg, po; type: ADME, organism-based; set-up: time infinity, dose 10 mg/kg, route oral; conditions: plasma
[10] = Half life in nude rat at 3 mg/kg, iv; type: ADME, organism-based; set-up: dose 3 mg/kg, route intravenous; conditions: in vivo
[11] = Volume of distribution at steady state in nude rat at 3 mg/kg, iv; type: ADME, organism-based; set-up: dose 3 mg/kg, route intravenous; conditions: in vivo, read-out: Vdss
[12] = Clearance in nude rat at 3 mg/kg, iv; type: ADME, organism-based; set-up: dose 3 mg/kg, route intravenous; conditions: in vivo
[13] = target: T1, Phosphatidylinositol 4,5-bisphosphate 3-kinase catalytic subunit beta isoform (Homo sapiens, UniProt P42338); assay: Inhibition of PI3Kbeta-mediated Akt phosphorylation at S473 in BRAF-V600E/PTEN-deficient human UACC62 cells; type: cell-based, UACC-62
Target sequence in this assay (P42338 whole entry, canonical isoform): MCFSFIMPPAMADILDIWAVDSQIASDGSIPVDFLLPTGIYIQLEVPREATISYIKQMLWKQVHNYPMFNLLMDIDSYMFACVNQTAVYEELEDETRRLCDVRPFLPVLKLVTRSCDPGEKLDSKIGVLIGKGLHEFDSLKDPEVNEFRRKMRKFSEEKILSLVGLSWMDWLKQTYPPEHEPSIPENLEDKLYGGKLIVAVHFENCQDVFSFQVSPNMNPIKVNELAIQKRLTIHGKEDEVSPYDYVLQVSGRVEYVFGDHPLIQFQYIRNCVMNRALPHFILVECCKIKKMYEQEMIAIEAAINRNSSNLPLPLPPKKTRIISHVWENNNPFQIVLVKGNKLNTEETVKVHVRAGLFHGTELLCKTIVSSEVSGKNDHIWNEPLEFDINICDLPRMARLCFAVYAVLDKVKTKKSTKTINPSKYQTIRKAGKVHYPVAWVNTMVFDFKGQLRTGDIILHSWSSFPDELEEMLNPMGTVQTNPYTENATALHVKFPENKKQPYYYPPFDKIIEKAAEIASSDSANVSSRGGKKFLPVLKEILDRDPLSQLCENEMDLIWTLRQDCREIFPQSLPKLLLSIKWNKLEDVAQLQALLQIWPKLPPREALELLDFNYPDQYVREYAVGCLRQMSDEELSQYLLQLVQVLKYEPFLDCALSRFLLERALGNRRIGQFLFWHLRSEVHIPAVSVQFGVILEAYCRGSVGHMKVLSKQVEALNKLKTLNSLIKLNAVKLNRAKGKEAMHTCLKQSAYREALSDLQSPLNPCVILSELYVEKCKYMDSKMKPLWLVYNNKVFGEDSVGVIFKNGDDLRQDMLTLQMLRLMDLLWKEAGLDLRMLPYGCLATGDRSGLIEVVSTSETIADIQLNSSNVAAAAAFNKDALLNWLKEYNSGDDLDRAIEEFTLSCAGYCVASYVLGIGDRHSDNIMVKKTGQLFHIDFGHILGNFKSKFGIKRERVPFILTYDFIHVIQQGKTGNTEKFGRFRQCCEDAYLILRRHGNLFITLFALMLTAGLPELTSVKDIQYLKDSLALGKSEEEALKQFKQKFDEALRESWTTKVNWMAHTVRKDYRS

Mus musculus [14] = assay: In vivo inhibition of PI3Kbeta in tumor of po dosed SCID mouse xenografted with BRAF-V600E/PTEN-deficient human UACC62 cells assessed as inhibition of Akt phosphorylation at S473; type: functional, organism-based; conditions: UACC-62
Mus musculus [15] = assay: In vivo inhibition of PI3Kbeta in tumor of SCID mouse xenografted with BRAF-V600E/PTEN-deficient human UACC62 cells assessed as inhibition of Akt phosphorylation at S473 at 200 mg/kg, po up to 6 hrs; type: functional; conditions: UACC-62, 6 h
[16] = Half life in nude rat at 10 mg/kg, po; type: ADME, organism-based; set-up: dose 10 mg/kg, route oral; conditions: in vivo
Mus musculus [17] = assay: Toxicity in SCID mouse xenografted with PTEN-deficient human PC3 cells assessed as body weight loss at 150 mg/kg, po bid; type: organism-based, PC-3; set-up: dose 150 mg/kg, route oral; conditions: in vivo
Mus musculus [18] = assay: Toxicity in SCID mouse xenografted with PTEN-deficient human PC3 cells at 150 mg/kg, po bid; type: organism-based, PC-3; set-up: dose 150 mg/kg, route oral; conditions: in vivo
PC-3 = assay: Antitumor activity against PTEN-deficient human PC3 cells xenografted in SCID mouse assessed as tumor growth inhibition at 150 mg/kg, po bid measured on day 31; type: functional
Mus musculus [19] = assay: In vivo inhibition of PI3Kbeta in tumor of po dosed SCID mouse xenografted with PTEN-deficient human PC3 cells assessed as inhibition of Akt phosphorylation at S473; type: functional, organism-based; conditions: PC-3
[20] = Plasma concentration in SCID mouse xenografted with PTEN-deficient human PC3 cells at 100 mg/kg, po after 24 hrs; type: ADME, organism-based, PC-3; set-up: dose 100 mg/kg, route oral
[21] = Plasma concentration in SCID mouse xenografted with PTEN-deficient human PC3 cells at 100 mg/kg, po after 4 hrs; type: ADME, organism-based, PC-3; set-up: dose 100 mg/kg, route oral
Mus musculus [22] = assay: In vivo inhibition of PI3Kbeta in tumor of SCID mouse xenografted with PTEN-deficient human PC3 cells assessed as inhibition of Akt phosphorylation at S473 at 100 mg/kg, po up to 7 hrs; type: functional; conditions: PC-3, 7 h
[23] = Oral bioavailability in Balb/c mouse plasma at 100 mg/kg by LC-MS/MS analysis; type: ADME, organism-based
[24] = Apparent terminal half life in Balb/c mouse plasma at 100 mg/kg, po by LC-MS/MS analysis; type: ADME, organism-based; set-up: dose 100 mg/kg, route oral; conditions: read-out: betat1/2(app) (converted)
[25] = AUC (infinity) in Balb/c mouse plasma at 100 mg/kg, po by LC-MS/MS analysis; type: ADME, organism-based; set-up: time infinity, dose 100 mg/kg, route oral
[26] = Cmax in Balb/c mouse plasma at 100 mg/kg, po by LC-MS/MS analysis; type: ADME, organism-based; set-up: dose 100 mg/kg, route oral
[27] = Oral bioavailability in Balb/c mouse plasma at 10 mg/kg by LC-MS/MS analysis; type: ADME, organism-based
[28] = Tmax in Balb/c mouse plasma at 10 mg/kg, po by LC-MS/MS analysis; type: ADME, organism-based; set-up: dose 10 mg/kg, route oral
[29] = AUC (infinity) in Balb/c mouse plasma at 3 mg/kg, iv by LC-MS/MS analysis; type: ADME, organism-based; set-up: time infinity, dose 3 mg/kg, route intravenous
[30] = Cmax in Balb/c mouse plasma at 3 mg/kg, iv by LC-MS/MS analysis; type: ADME, organism-based; set-up: dose 3 mg/kg, route intravenous
[31] = target: Phosphatidylinositol 3-kinase catalytic subunit type 3 (Homo sapiens, UniProt Q8NEB9); assay: Inhibition of VPS34 (unknown origin)
[32] = target: Phosphatidylinositol 4-phosphate 3-kinase C2 domain-containing subunit alpha (Homo sapiens, UniProt O00443); assay: Inhibition of PI3KC2alpha (unknown origin)
[33] = target: Phosphatidylinositol 4-phosphate 3-kinase C2 domain-containing subunit beta (Homo sapiens, UniProt O00750); assay: Inhibition of PI3KC2beta (unknown origin)
[34] = target: DNA-dependent protein kinase catalytic subunit (Homo sapiens, UniProt P78527); assay: Inhibition of DNA-PK (unknown origin)
Cytochrome P450 3A4 = Cytochrome P450 3A4 (Homo sapiens, UniProt P08684); assay: Inhibition of recombinant human CYP3A4
[35] = Metabolic stability in human liver microsomes at 5 uM after 20 mins; conditions: liver microsomes
[36] = Metabolic stability in mouse liver microsomes at 5 uM after 20 mins; conditions: liver microsomes
[37] = Solubility of the compound in phosphate buffer at pH 7.4 by HPLC analysis; conditions: buffer
[38] = target: Phosphatidylinositol 4,5-bisphosphate 3-kinase catalytic subunit gamma isoform (Homo sapiens, UniProt P48736); assay: Inhibition of C-terminal ploy-His-tagged human PI3Kgamma expressed in baculovirus-infected sf9 cells using PI(4,5)P2 as substrate after 15 mins by HTRF assay
[39] = target: T1, Phosphatidylinositol 4,5-bisphosphate 3-kinase catalytic subunit beta isoform; assay: Inhibition of N-terminal ploy-His-tagged human PI3Kbeta expressed in baculovirus-infected sf21 cells using PI(4,5)P2 as substrate after 15 mins by HTRF assay
Target sequence in this assay (P42338 whole entry, canonical isoform): as above

[40] = target: T1, Phosphatidylinositol 4,5-bisphosphate 3-kinase catalytic subunit beta isoform; conditions: UACC-62
Target sequence in this assay (P42338 whole entry, looked up, canonical isoform): as the sequence (P42338 whole entry, canonical isoform) above

[41] = target: T1, Phosphatidylinositol 4,5-bisphosphate 3-kinase catalytic subunit beta isoform; conditions: PC-3
Target sequence in this assay (P42338 whole entry, looked up, canonical isoform): as the sequence (P42338 whole entry, canonical isoform) above
Description: Inhibition of PI3Kbeta-mediated Akt phosphorylation at S473 in PTEN-deficient human PC3 cells after 0.5 to 2 hrs by Immunoblotting assay

Sequence of Phosphatidylinositol 4-phosphate 3-kinase C2 domain-containing subunit beta (O00750 whole entry, the tested form may be a part): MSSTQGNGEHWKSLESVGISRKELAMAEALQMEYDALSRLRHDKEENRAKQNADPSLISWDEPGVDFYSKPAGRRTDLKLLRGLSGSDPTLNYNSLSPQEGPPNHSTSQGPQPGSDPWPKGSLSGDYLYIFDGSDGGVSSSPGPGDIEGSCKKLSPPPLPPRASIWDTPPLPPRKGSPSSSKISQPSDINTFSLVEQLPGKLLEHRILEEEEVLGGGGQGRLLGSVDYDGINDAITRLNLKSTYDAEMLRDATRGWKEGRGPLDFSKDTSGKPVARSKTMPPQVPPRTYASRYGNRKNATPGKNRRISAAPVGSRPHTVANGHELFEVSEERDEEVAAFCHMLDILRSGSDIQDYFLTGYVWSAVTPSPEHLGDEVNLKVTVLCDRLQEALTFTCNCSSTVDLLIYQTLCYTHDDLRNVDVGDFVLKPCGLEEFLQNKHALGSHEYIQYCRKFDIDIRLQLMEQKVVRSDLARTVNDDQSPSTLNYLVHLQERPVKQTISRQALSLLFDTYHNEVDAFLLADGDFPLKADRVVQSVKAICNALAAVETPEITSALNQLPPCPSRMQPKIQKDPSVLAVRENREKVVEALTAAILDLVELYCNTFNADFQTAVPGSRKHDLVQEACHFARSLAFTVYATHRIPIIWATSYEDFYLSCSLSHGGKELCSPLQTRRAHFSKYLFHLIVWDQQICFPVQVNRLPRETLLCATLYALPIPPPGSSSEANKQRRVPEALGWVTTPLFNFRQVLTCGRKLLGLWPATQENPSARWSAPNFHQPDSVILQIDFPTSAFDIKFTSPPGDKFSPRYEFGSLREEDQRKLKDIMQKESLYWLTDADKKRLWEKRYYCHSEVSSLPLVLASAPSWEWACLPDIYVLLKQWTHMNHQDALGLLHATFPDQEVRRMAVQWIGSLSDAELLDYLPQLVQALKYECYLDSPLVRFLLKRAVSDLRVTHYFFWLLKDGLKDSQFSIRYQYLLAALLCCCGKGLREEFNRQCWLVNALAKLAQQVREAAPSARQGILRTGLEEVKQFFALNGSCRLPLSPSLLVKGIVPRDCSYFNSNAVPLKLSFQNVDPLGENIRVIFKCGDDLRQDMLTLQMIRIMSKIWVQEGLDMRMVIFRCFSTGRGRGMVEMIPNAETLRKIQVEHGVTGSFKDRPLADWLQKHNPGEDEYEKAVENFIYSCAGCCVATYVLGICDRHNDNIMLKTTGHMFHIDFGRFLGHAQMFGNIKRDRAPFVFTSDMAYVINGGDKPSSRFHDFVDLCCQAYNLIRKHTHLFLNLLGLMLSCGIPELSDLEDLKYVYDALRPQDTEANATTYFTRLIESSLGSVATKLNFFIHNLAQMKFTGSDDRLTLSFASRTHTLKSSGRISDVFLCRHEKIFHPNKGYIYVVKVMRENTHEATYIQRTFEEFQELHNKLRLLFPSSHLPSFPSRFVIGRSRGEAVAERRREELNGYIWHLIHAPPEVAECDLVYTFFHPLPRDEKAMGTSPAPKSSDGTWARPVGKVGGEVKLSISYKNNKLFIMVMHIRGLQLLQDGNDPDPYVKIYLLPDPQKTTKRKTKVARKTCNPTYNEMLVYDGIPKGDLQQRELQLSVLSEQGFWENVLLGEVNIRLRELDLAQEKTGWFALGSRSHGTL
Sequence of Phosphatidylinositol 4-phosphate 3-kinase C2 domain-containing subunit alpha (O00443 whole entry, the tested form may be a part): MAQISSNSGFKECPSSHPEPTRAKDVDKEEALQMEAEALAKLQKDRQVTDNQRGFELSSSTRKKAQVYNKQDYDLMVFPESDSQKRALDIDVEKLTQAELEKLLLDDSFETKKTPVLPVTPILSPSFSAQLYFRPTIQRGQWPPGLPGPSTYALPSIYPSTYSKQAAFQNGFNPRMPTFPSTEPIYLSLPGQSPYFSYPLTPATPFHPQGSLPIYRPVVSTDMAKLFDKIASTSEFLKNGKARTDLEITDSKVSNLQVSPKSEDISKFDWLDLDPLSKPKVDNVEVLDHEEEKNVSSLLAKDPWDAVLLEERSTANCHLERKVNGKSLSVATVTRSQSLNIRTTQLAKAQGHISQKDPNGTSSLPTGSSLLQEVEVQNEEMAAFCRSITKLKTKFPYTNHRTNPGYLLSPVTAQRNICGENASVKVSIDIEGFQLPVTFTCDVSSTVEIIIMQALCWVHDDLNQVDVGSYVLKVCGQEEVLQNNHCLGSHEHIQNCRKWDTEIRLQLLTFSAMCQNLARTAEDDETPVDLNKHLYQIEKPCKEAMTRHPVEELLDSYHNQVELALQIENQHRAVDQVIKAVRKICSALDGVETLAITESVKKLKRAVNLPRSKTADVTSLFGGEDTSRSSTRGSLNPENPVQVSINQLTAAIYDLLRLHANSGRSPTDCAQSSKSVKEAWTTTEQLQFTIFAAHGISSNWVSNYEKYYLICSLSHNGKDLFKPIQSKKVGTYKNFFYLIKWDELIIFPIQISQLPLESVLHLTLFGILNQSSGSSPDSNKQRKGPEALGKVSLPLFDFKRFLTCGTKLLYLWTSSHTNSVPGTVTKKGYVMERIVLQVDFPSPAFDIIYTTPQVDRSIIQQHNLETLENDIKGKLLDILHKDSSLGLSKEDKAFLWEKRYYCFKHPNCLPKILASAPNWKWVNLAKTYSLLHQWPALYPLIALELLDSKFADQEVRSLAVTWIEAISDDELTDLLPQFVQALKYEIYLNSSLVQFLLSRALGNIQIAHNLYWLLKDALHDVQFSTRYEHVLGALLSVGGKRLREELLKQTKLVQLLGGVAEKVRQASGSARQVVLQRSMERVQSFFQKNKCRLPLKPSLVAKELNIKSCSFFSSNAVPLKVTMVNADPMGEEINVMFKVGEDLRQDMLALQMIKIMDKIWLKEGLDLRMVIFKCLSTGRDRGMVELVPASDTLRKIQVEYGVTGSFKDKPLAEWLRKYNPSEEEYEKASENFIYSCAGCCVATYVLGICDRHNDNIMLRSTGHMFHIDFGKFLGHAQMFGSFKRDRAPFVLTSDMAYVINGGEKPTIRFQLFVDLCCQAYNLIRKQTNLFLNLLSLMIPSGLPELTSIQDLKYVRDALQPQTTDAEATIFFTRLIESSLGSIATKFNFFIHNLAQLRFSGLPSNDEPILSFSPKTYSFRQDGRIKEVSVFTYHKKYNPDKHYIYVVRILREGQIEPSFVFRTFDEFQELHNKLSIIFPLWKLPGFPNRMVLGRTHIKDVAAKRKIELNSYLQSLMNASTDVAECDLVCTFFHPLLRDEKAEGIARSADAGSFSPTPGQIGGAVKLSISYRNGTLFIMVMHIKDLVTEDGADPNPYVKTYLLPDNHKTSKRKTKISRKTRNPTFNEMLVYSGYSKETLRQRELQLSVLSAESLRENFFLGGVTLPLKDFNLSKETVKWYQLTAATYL
Sequence of Cytochrome P450 3A4 (P08684 whole entry): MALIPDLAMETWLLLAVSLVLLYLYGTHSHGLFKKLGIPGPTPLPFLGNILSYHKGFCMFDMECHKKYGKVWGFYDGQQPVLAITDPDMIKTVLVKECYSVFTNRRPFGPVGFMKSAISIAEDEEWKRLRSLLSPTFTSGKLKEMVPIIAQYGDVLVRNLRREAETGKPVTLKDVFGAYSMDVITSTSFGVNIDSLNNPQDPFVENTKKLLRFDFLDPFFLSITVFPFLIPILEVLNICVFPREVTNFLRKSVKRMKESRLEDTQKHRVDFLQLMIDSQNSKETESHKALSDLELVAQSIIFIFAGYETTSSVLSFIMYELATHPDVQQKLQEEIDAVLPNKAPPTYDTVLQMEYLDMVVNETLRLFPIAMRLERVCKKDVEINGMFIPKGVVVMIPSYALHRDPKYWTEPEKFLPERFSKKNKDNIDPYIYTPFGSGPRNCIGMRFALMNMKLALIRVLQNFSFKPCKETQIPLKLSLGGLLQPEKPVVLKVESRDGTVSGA

Question: For `C[C@H]1Cc2ccccc2N1C(=O)Cc1nc(N2CCOCC2)cc(=O)[nH]1` [SAR-260301], which Stability (Liver microsome) is on record?
Answer: 5%

Question: What about the half-life [1] of the same compound?
Answer: 270 min

Question: What about the bioavailability [2] of the same compound?
Answer: 67%

Question: What about the Tmax [3] of the same compound?
Answer: 30 min

Question: And the Vd [4]?
Answer: > 3 L/kg

Question: What about the clearance [5] of the same compound?
Answer: 6.67 mL/min/kg

Question: What about the Cmax [6] of the same compound?
Answer: 4920 ng/mL

Question: And the bioavailability [7]?
Answer: 70%

Question: And the Tmax [8]?
Answer: 15 min

Question: And the AUC(0-inf) [9]?
Answer: 2410 ng·h/mL

Question: What about the half-life [10] of the same compound?
Answer: 52.2 min

Question: What about the Vd [11] of the same compound?
Answer: 8.1 L/kg

Question: And the clearance [12]?
Answer: 56.7 mL/min/kg

Question: What about the IC50 [13] of the same compound?
Answer: 60 nM

Question: What about the EC50 (Mus musculus [14]) of the same compound?
Answer: 4550 nM

Question: What about the inhibition in vivo at 200 mg/kg (Mus musculus [15]) of the same compound?
Answer: > 50%

Question: What about the half-life [16] of the same compound?
Answer: 414 min

Question: And the Activity (Mus musculus [17])?
Answer: Non-toxic

Question: What about the Activity (Mus musculus [18]) of the same compound?
Answer: Non-toxic

Question: And the T/C (PC-3)?
Answer: 61%

Question: And the EC50 (Mus musculus [19])?
Answer: 680 nM

Question: What about the concentration at 24 h [20] of the same compound?
Answer: 0.076 µM

Question: What about the concentration at 4 h [21] of the same compound?
Answer: 14.2 µM

Question: What about the inhibition in vivo at 100 mg/kg (Mus musculus [22]) of the same compound?
Answer: ≥ 50%

Question: What about the bioavailability [23] of the same compound?
Answer: 55%

Question: And the half-life [24]?
Answer: 150 min

Question: What about the AUC(0-inf) [25] of the same compound?
Answer: 11000 ng·h/mL

Question: What about the Cmax [26] of the same compound?
Answer: 8960 ng/mL

Question: What about the bioavailability [27] of the same compound?
Answer: 30%

Question: And the Tmax [28]?
Answer: 15 min

Question: What about the AUC(0-inf) [29] of the same compound?
Answer: 600 ng·h/mL

Question: And the Cmax [30]?
Answer: 1870 ng/mL

Question: And the IC50 [31]?
Answer: 183 nM

Question: What about the IC50 [32] of the same compound?
Answer: > 10000 nM

Question: And the IC50 [33]?
Answer: > 1000 nM

Question: And the IC50 [34]?
Answer: 2000 nM

Question: And the IC50 (Cytochrome P450 3A4)?
Answer: 40000 nM

Question: And the remaining at 20 min, 5 µM [35]?
Answer: 12%

Question: What about the remaining at 20 min, 5 µM [36] of the same compound?
Answer: 19%

Question: What about the solubility [37] of the same compound?
Answer: 928 µM (≈ 329 µg/mL)

Question: What about the IC50 [38] of the same compound?
Answer: 10000 nM

Question: And the IC50 [39]?
Answer: 23 nM

Question: What about the IC90 [40] of the same compound?
Answer: 2000 nM

Question: And the IC90 [41]?
Answer: 2 nM
